Measurements reported in US10758549B2, “Compositions of obeticholic acid and methods of use” (Intercept Pharmaceuticals, Inc., priority 2015, dated 2020).

Columns and labels:
[1] = normal hepatic function, Fixed; cited from earlier work
Surface area by BET = format: physicochemical
Experimental: The impact of jet-milling on API particle size and surface area is detailed in Table 4-1 and Table 4-2, respectively. Surface area was tested per a BET (Brunauer, Emmett, and Teller theory). The BET method for analyzing surface area is based on adsorption of gas on a surface. The amount of gas adsorbed at a given pressure allows a determination of the surface area.

PBC patients = assay: Example 7: 12-week placebo-controlled OCA monotherapy study (10 mg, 50 mg) in PBC; format: in vivo, human; conditions: for ALP Change from Baseline to Day 85/ET, Mean / ALP Level at Day 85/ET, Mean / ALP Level at Day 85/ET, Median / Percent Change in ALP from Baseline to EOS, Mean (SD) / Percent Change in ALP from Baseline to EOS, Median / GGT level at Day 85/ET, mean (SD): ITT
Experimental: This example describes a study of two doses of OCA (10 mg and 50 mg) vs. placebo for a period of 12 weeks (85 days). The study was completed by 48 patients and PK data are available for 34 patients. All patients returned to the study site for 4 visits (Day 15, Day 29, Day 57, and Day 85) for evaluations of efficacy, safety, tolerability, and compliance with investigational product.
Key Exclusion Criteria • 1. The following drugs were contraindicated: ursodeoxycholic acid (UDCA), colchicine, methotrexate, azathioprine, or systemic corticosteroids • 2. Conjugated bilirubin>2×ULN; ALT or AST>5×ULN and serum creatinine>133 μmol/L (1.5 mg/dL) • 3. History or presence of hepatic decompensation • 4. History of presence of concomitant liver diseases such as Hepatitis B or C; HIV; primary sclerosing cholangitis, alcoholic liver disease, definite autoimmune liver disease or biopsy proven nonalcoholic steatohepatitis (NASH).
The percent change (%) in serum ALP from Baseline to End of Study (EOS) was monitored. The baseline value was the mean of the pretreatment screening and day 0 evaluations. The EOS value was Day 85/ET or the last observed ALP value on treatment.
Absolute changes in serum ALP levels were monitored from Baseline to Day 15, Day 29, Day 57, Day 85/ET and Follow-Up (Day 99). The percentage of patients was calculated who met the definition of PBC responder criteria applying the Paris I, Toronto I, Toronto II, Toronto III, Toronto IV, Mayo II, and Barcelona disease prognostic risk criteria at Day 85/ET. Each patient was tested for absolute and percent change in serum aspartate aminotransferase (AST), alanine aminotransferase (ALT), gamma-glutamyl transferase (GGT), and conjugated (direct) bilirubin values from Baseline to Day 15, Day 29, Day 57, Day 85/ET and Follow-Up (Day 99).

pKa = format: physicochemical
Plasma protein binding = format: in vitro ADME; conditions: human
[2] = Hepatic impairment study, single dose of 10 mg OCA; format: in vivo, human; conditions: hepatically-impaired patients
From the text: The mean total OCA concentration-time profiles in this study are shown in FIG. 16 and the mean PK parameters (Cmax and AUCt) for total OCA in plasma for normal healthy volunteers and subjects with various categories of hepatic impairment are quantified in Table 27.
Development of the PK model for the physiological changes associated with hepatic impairment used 928 plasma sample concentrations of OCA, glyco-OCA, and tauro-OCA from 32 subjects-8 subjects each with mild, moderate, severe hepatic impairment and normal hepatic function. Subjects were administered a single 10 mg dose of OCA. […] Participants were 90.6% white, 3.1% black, 3.1% Asian, and 3.1% other. Mean Child-Pugh Score was 8.0 (2.0) (Child-Pugh Score: Class A/Mild 5-6 points, Class B/Moderate 7-9 points, Class C/Severe 10-15 points). The percentage of BLQ samples with imputed concentrations was 16.8%, 5.4%, and 9.6% for OCA, glyco-OCA, and tauro-OCA, respectively.

CYP2C8 = target: T1, CYP2C8 (Homo sapiens, UniProt P10632); assay: In vitro studies: CYP inhibition; format: in vitro ADME
T1 sequence (P10632 1-490): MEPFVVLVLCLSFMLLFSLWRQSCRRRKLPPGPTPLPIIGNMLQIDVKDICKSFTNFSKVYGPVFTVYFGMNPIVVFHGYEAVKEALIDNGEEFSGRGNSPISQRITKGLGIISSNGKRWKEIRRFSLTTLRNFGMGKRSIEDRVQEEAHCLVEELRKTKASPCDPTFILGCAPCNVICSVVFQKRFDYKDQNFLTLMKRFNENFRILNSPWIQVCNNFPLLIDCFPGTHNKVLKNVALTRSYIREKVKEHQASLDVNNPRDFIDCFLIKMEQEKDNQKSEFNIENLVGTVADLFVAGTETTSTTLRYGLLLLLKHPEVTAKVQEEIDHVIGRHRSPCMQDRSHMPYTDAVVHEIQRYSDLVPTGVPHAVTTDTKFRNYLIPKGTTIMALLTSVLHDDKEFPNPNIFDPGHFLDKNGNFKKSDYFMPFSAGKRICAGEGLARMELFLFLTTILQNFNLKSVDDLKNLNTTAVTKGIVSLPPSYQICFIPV

patients with NASH = assay: Example 12: double-blind study of daily 25 mg OCA in NASH, high risk subgroup; format: in vivo, human; conditions: week 72, 25 mg OCA daily
Experimental: This example describes a clinical, double-blind study examining the effect of daily 25 mg OCA on nonalcoholic steatohepatitis (NASH). OCA lead to biopsy proven improvements in liver fibrosis. Patients with NASH who have elevated NAFLD activity scores (NAS) and fibrosis are at a higher risk of progression to cirrhosis and liver related mortality.
The high risk subgroup was defined as patients with a baseline NAS≥4, baseline fibrosis stage 2 or 3 or baseline fibrosis stage 1 with a comorbidity (type 2 diabetes, BMI≥30 kg/m^2 or ALT≥60 U/L) (OCA n=114; Placebo n=112). The Fibrosis-4 (FIB-4), the aspartate transaminase to platelet ratio (APRI), and the NAFLD fibrosis score (NFS) were all examined between baseline through 72 weeks of treatment and for an additional 24 weeks of follow up.

surface area increase after jet-milling (Surface area by BET): approximately 3 fold
mean change in LDL-C at Day 85/ET (PBC patients; OCA 10 mg): +0.10 (0.58) mmol/L
HDL-C at end of treatment (ET), mean (SD) (PBC patients; OCA 10 mg, baseline 1.73 (0.45) mmol/L): 1.57 (0.46) mmol/L
mean change in LDL-C at Day 85/ET (PBC patients; OCA 50 mg): +0.23 (0.52) mmol/L
HDL-C at end of treatment (ET), mean (SD) (PBC patients; OCA 50 mg, baseline 1.95 (0.55) mmol/L): 1.86 (0.56) mmol/L
dropout rate (PBC patients; OCA 50 mg, early in treatment (<1 month)): 44%
pKa (pKa): 4.82
fraction unbound (Plasma protein binding): < 0.01
plasma OCA exposures versus healthy subjects [2]: > 10 fold
inhibition of CYP2C8 (CYP2C8): not an inhibitor
SMILES: CC[C@H]1[C@@H](O)[C@@H]2[C@H](CC[C@]3(C)[C@@H]([C@H](C)CCC(=O)O)CC[C@@H]23)[C@@]2(C)CC[C@@H](O)C[C@@H]12 [OCA, 3α,7α-dihydroxy-6α-ethyl-5β-cholan-24-oic acid]
t13: OCA transport rate from sinusoidal space to liver [1]: 1.62 h⁻¹
ALP Change from Baseline to Day 85/ET, Mean (PBC patients; OCA 10 mg (n = 20)): −233.5 U/L
ALP Level at Day 85/ET, Mean (PBC patients; OCA 10 mg (n = 20)): 228.1 U/L
ALP Level at Day 85/ET, Median (PBC patients; OCA 10 mg (n = 20)): 196.5 U/L
Percent Change in ALP from Baseline to EOS, Mean (SD) (PBC patients; OCA 10 mg (n = 20)): −44.5 (24.4) %
Percent Change in ALP from Baseline to EOS, Median (PBC patients; OCA 10 mg (n = 20)): −53.9%
GGT level at Day 85/ET, mean (SD) (PBC patients; OCA 10 mg, baseline 653 (370) U/L): 184 (203) U/L
AST level at Day 85/ET, mean (SD) (PBC patients; OCA 10 mg, baseline 67 (33) U/L): 54 (40) U/L
ALT level at Day 85/ET, mean (SD) (PBC patients; OCA 10 mg, baseline 86 (44) U/L): 54 (41) U/L
ALP Change from Baseline to Day 85/ET, Mean (PBC patients; OCA 50 mg (n = 16)): −161.3 U/L
ALP Level at Day 85/ET, Mean (PBC patients; OCA 50 mg (n = 16)): 269.8 U/L
ALP Level at Day 85/ET, Median (PBC patients; OCA 50 mg (n = 16)): 197.5 U/L
Percent Change in ALP from Baseline to EOS, Mean (SD) (PBC patients; OCA 50 mg (n = 16)): −37.6 (21.0) %
Percent Change in ALP from Baseline to EOS, Median (PBC patients; OCA 50 mg (n = 16)): −37.2%
GGT level at Day 85/ET, mean (SD) (PBC patients; OCA 50 mg, baseline 455 (418) U/L): 202 (300) U/L
AST level at Day 85/ET, mean (SD) (PBC patients; OCA 50 mg, baseline 66 (29) U/L): 56 (28) U/L
ALT level at Day 85/ET, mean (SD) (PBC patients; OCA 50 mg, baseline 71 (38) U/L): 49 (29) U/L
ALP reduction, on average (PBC patients; each OCA dose (10 mg and 50 mg monotherapy), early stage PBC): approximately 40%
APRI OCA-Placebo LS Mean change (patients with NASH; 95% CI=[−0.32, −0.15]): −0.23
NFS OCA-Placebo LS Mean change (patients with NASH; 95% CI=[−0.45, −0.10]): −0.28
FIB-4 OCA-Placebo LS Mean change (patients with NASH; 95% CI=[−0.47, −0.19]): −0.33
